Measurements published in ChEMBL document CHEMBL3272295, “Drugs derived from cannabinoids. 5. delta6a,10a-Tetrahydrocannabinol and heterocyclic analogs containing aromatic side chains” (J Med Chem, 1976).

How the values were obtained:
Rattus norvegicus [1] = assay: Antipsychotic activity in rat assessed as reduction of methamphetamine-induced hyperactivity at 10 mg/kg, po administered prior to methamphetamine challenge relative to vehicle-treated control; type: functional; parameters: scale not given: the % may be the effect or the level left
Felis catus [2] = assay: Hypnotic activity in cat assessed as increase in total sleep time at 0.5 mg/kg administered orally through diet measured for 12 hrs by EEG analysis; type: functional; details: route oral
Rattus norvegicus [3] = assay: Antihypertensive activity in spontaneously hypertensive rat model assessed as reduction in blood pressure at 30 mg/kg, po after 3 hrs; type: functional; parameters: scale not given: the % may be the effect or the level left
Rattus norvegicus [4] = species: Rattus norvegicus; assay: animal or person; type: functional; details: Charles River, route oral
Description: Antidiarrheal activity in Charles River rat assessed as inhibition of castor oil-induced diarrhea by measuring protected animals at 0.5 mg/kg, po administered 1 hr prior to castor oil challenge measured after 1 hr relative to vehicle-treated control

Rattus norvegicus [5] = assay: Antianxiety activity in Long-Evans rat assessed as reduction in motor activity at 5 mg/kg, po after 2 hrs relative to vehicle-treated control; type: functional; parameters: scale not given: the % may be the effect or the level left
Mus musculus [6] = assay: Antianxiety activity in albino BALB/cJ mouse assessed as reduction in footshock-induced fighting behavior at 5 mg/kg, po after 30 to 90 mins; type: functional; parameters: scale not given: the % may be the effect or the level left
Felis catus [7] = assay: Hypnotic activity in cat assessed as increase in non-REM sleep time at 0.5 mg/kg administered orally through diet measured for 12 hrs by EEG analysis; type: functional; details: route oral
Rattus norvegicus [8] = assay: Antipsychotic activity in rat assessed as reduction of methamphetamine-induced hyperactivity at 20 mg/kg, po administered prior to methamphetamine challenge relative to vehicle-treated control; type: functional; parameters: scale not given: the % may be the effect or the level left
Rattus norvegicus [9] = assay: Antihypertensive activity in spontaneously hypertensive rat model assessed as reduction in blood pressure at 30 mg/kg, po after 24 hrs; type: functional; parameters: scale not given: the % may be the effect or the level left
[10] = Acute toxicity in po dosed mouse; type: organism-based; details: in vivo
Mus musculus [11] = assay: Analgesic activity in po dosed mouse assessed as inhibition of acetic acid-induced writhing administered 30 mins prior to acetic acid challenge measured after 5 mins for 20 mins; type: functional
Rattus norvegicus [12] = assay: Antianxiety activity in Long-Evans rat assessed as reduction in motor activity at 10 mg/kg, po after 2 hrs relative to vehicle-treated control; type: functional; parameters: scale not given: the % may be the effect or the level left
Canis familiaris = assay: Antianxiety activity in po dosed dog assessed as ataxia administered as single dose measured up to 24 hrs; type: functional; details: Canis lupus familiaris, read-out: MED
Rattus norvegicus [13] = assay: Antihypertensive activity in spontaneously hypertensive rat model assessed as reduction in blood pressure at 1 mg/kg, po after 3 hrs; type: functional; parameters: scale not given: the % may be the effect or the level left
Rattus norvegicus [14] = assay: Antihypertensive activity in spontaneously hypertensive rat model assessed as reduction in blood pressure at 3 mg/kg, po after 24 hrs; type: functional; parameters: scale not given: the % may be the effect or the level left
Mus musculus [15] = assay: Antianxiety activity in albino BALB/cJ mouse assessed as reduction in footshock-induced fighting behavior at 10 mg/kg, po after 30 to 90 mins; type: functional; parameters: scale not given: the % may be the effect or the level left
Rattus norvegicus [16] = assay: Antihypertensive activity in spontaneously hypertensive rat model assessed as reduction in blood pressure at 1 mg/kg, po after 24 hrs; type: functional; parameters: scale not given: the % may be the effect or the level left
Rattus norvegicus [17] = assay: Antihypertensive activity in spontaneously hypertensive rat model assessed as reduction in blood pressure at 3 mg/kg, po after 3 hrs; type: functional; parameters: scale not given: the % may be the effect or the level left
Rattus norvegicus [18] = assay: Antianxiety activity in Long-Evans rat assessed as reduction in motor activity at 20 mg/kg, po after 2 hrs relative to vehicle-treated control; type: functional; parameters: scale not given: the % may be the effect or the level left
Mus musculus [19] = assay: Analgesic activity in mouse assessed as inhibition of acetic acid-induced writhing at 10 mg/kg, po administered 30 mins prior to acetic acid challenge measured after 5 mins for 20 mins; type: functional
Rattus norvegicus [20] = assay: Increase in methamphetamine-induced hyperactivity in rat at 5 mg/kg, po administered prior to methamphetamine challenge relative to vehicle-treated control; type: functional
Rattus norvegicus [21] = assay: Analgesic activity in po dosed Sprague-Dawley rat after 15 to 90 mins by tail flick test; type: functional
Mus musculus [22] = assay: Anticonvulsant activity in po dosed mouse assessed as dose required to protect 80% of animal measured after 1 to 4 hrs by audiogenic seizure test; type: functional
Rattus norvegicus [23] = assay: Antipsychotic activity in rat assessed as reduction of methamphetamine-induced hyperactivity at 2.5 mg/kg, po administered prior to methamphetamine challenge relative to vehicle-treated control; type: functional; parameters: scale not given: the % may be the effect or the level left
Rattus norvegicus [24] = assay: Antidiarrheal activity in Charles River rat assessed as inhibition of castor oil-induced diarrhea by measuring protected animals at 0.2 mg/kg, po administered 1 hr prior to castor oil challenge measured after 1 hr relative to vehicle-treated control; type: functional
Rhesus monkey = assay: Antianxiety activity in po dosed rhesus monkey assessed as antiagressive behavior measured every hour post dosing; type: functional; details: Macaca mulatta, read-out: MED
Rattus norvegicus [25] = assay: Antihypertensive activity in spontaneously hypertensive rat model assessed as reduction in blood pressure at 0.3 mg/kg, po after 24 hrs; type: functional; parameters: scale not given: the % may be the effect or the level left
Rattus norvegicus [26] = assay: Antihypertensive activity in spontaneously hypertensive rat model assessed as reduction in blood pressure at 0.3 mg/kg, po after 3 hrs; type: functional; parameters: scale not given: the % may be the effect or the level left
Rattus norvegicus [27] = assay: Antipsychotic activity in rat assessed as reduction of methamphetamine-induced hyperactivity at 5 mg/kg, po administered prior to methamphetamine challenge relative to vehicle-treated control; type: functional; parameters: scale not given: the % may be the effect or the level left
Rattus norvegicus [28] = assay: Antidiarrheal activity in Charles River rat assessed as inhibition of castor oil-induced diarrhea by measuring protected animals at 0.1 mg/kg, po administered 1 hr prior to castor oil challenge measured after 1 hr relative to vehicle-treated control; type: functional
Rattus norvegicus [29] = assay: Antisecretory activity in Sprague-Dawley rat assessed as decrease in pepsin output at 50 mg/kg, po administered 30 mins prior to pylorus ligation measured after 4 hrs relative to control; type: functional; parameters: scale not given: the % may be the effect or the level left
Rattus norvegicus [30] = assay: Antisecretory activity in Sprague-Dawley rat assessed as decrease in acidity at 50 mg/kg, po administered 30 mins prior to pylorus ligation measured after 4 hrs relative to control; type: functional; parameters: scale not given: the % may be the effect or the level left
Rattus norvegicus [31] = assay: Antisecretory activity in Sprague-Dawley rat assessed as decrease in volume at 50 mg/kg, po administered 30 mins prior to pylorus ligation measured after 4 hrs relative to control; type: functional; parameters: scale not given: the % may be the effect or the level left
Rattus norvegicus [32] = assay: Antisecretory activity in Sprague-Dawley rat assessed as decrease in acid output at 50 mg/kg, po administered 30 mins prior to pylorus ligation measured after 4 hrs relative to control; type: functional; parameters: scale not given: the % may be the effect or the level left
Rattus norvegicus [33] = assay: Increase in pepsin concentration in Sprague-Dawley rat at 50 mg/kg, po administered 30 mins prior to pylorus ligation measured after 4 hrs relative to control; type: functional
Rattus norvegicus [34] = assay: Antianxiety activity in Long-Evans rat assessed as reduction in motor activity at 4 mg/kg, po after 2 hrs relative to vehicle-treated control; type: functional; parameters: scale not given: the % may be the effect or the level left
Rattus norvegicus [35] = assay: Antianxiety activity in Long-Evans rat assessed as reduction in motor activity at 1 mg/kg, po after 2 hrs relative to vehicle-treated control; type: functional; parameters: scale not given: the % may be the effect or the level left

SMILES	Activity (Rattus norvegicus [1])	Time (Felis catus [2])	inhibition in vivo at 0.5 mg/kg (Rattus norvegicus [4])	Activity (Rattus norvegicus [5])	Activity (Mus musculus [6])	Time (Felis catus [7])	LD50 [10]	ED50 (Mus musculus [11])	minimal effective dose (Canis familiaris)	Activity (Rattus norvegicus [14])	Activity (Mus musculus [15])	Activity (Rattus norvegicus [17])	ED50 (Rattus norvegicus [21])	Activity (Rattus norvegicus [23])	minimal effective dose (Rhesus monkey)	Activity (Rattus norvegicus [27])	also measured
C#CCN1CCC2=C(C1)c1c(O)cc(C(C)CCCCc3ccc(F)cc3)cc1OC2(C)C (stereo not drawn)	50%	61 min	30%	33%	0%	7 min	≥ 1000 mg/kg	48 mg/kg									Activity (Rattus norvegicus [3]): 0%; Activity (Rattus norvegicus [8]): 70%; Activity (Rattus norvegicus [9]): 0%
CC1CCC2=C(C1)c1c(O)cc(C(C)C(C)CCCc3ccc(F)cc3)cc1OC2(C)C (stereo not drawn)							500 mg/kg		10 mg/kg	5%	16%	33%					Activity (Rattus norvegicus [12]): 36%; Activity (Rattus norvegicus [13]): 9%; Activity (Rattus norvegicus [16]): 0%; Activity (Rattus norvegicus [18]): 62%; inhibition in vivo at 10 mg/kg (Mus musculus [19]): 32%; Activity (Rattus norvegicus [20]): 23%
CCCCCC(C)C(C)c1cc(O)c2c(c1)OC(C)(C)C1=C2CC(C)CC1 (stereo not drawn)		62 min		96%	58%	122 min	≥ 1000 mg/kg	3 mg/kg	1 mg/kg	28%	92%	37%	1.4 mg/kg	48%	10 mg/kg	70%	Activity (Mus musculus [22]): 10 mg/kg; inhibition in vivo at 0.2 mg/kg (Rattus norvegicus [24]): 80%; Activity (Rattus norvegicus [25]): 12%; Activity (Rattus norvegicus [26]): 19%; inhibition in vivo at 0.1 mg/kg (Rattus norvegicus [28]): 50%
C#CCN1CCC2=C(C1)c1c(OC(=O)CCCN3CCCCC3)cc(C(C)CCCc3ccc(F)cc3)cc1OC2(C)C.Cl (stereo not drawn)		47 min	40%	87%		121 min	750 mg/kg	10.3 mg/kg	0.4 mg/kg		23%				1 mg/kg	62%	Activity (Rattus norvegicus [29]): 1.9%; Activity (Rattus norvegicus [30]): 42.4%; Activity (Rattus norvegicus [31]): 24.9%; Activity (Rattus norvegicus [32]): 56.1%; Activity (Rattus norvegicus [33]): 32%
CC1CCC2=C(C1)c1c(OC(=O)CCCN3CCOCC3)cc(C(C)CCCc3ccc(F)cc3)cc1OC2(C)C.Cl (stereo not drawn)	95%	16 min			8%	39 min	≥ 1000 mg/kg	6 mg/kg	10 mg/kg				1.7 mg/kg	86%	10 mg/kg		Activity (Rattus norvegicus [34]): 93%; Activity (Rattus norvegicus [35]): 68%
